# Reference: BindingDB's records for doi:10.1016/j.bioorg.2015.10.005 (Hazara University, 2015)
# pIC50: −log10 of the molar value.
# Target: Urease subunit alpha (Sporosarcina pasteurii, UniProt P41020)
# Assay: Urease Inhibition Assay
# Settings: pH 7
# Procedure: This assay was modified from Berthelot assay and was employed for the determination of urease activity. The assay is based on the hydrolysis of urea into ammonia which reacts with phenol-hypochlorite to form light blue colored complex measured at 625 nm. A total volume of 85 µl assay mixture contained 10 µl of 50 mM phosphate buffer, pH 7.0, 10 µl of sample solution and 25 µl of Bacillus pasteurii urease (Sigma) solution (0.015 units). The contents were pre-incubated at 37 °C for 10 min. Then, 40 µl of urea stock solution (20 mM) was added to each well and incubation continued at 37 °C for further 10 min and preread at 625 nm using the 96-well plate reader Synergy HT (Biotek Inc.). Phenol hypochlorite (115 µl) reagent was added in each well (freshly prepared by mixing 45 µl phenol reagent with 70 µl of alkali reagent). For color development, incubation was done at 37 °C for another 10 min. Absorbance was again measured at 625 nm.
# Urease subunit alpha, sequence (P41020 as listed by the source): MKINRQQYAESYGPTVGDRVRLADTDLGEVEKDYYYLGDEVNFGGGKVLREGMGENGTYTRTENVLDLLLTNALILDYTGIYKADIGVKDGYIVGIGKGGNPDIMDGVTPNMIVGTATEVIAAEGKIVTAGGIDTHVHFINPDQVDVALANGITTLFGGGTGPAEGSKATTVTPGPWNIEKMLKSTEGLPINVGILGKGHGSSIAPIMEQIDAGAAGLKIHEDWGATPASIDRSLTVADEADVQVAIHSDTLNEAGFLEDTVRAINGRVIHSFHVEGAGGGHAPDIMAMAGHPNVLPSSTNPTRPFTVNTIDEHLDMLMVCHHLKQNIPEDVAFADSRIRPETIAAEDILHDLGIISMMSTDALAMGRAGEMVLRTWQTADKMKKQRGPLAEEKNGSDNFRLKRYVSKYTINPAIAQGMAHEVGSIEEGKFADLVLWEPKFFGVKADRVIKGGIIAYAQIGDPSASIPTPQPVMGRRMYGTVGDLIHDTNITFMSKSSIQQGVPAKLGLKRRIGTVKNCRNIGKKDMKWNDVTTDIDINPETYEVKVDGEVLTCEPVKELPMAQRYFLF
row,Compound,pIC50
1,"COc1cc(/C=N/N=C2\NC(=O)CS2)cc(Br)c1OC [(E)-2((E)-(3-Bromo-4,5-dimethoxybenzylidene)hydrazono) thiazolidine-4-one (7)]",4.44
2,O=C1CS/C(=N/N=C/c2cccc([N+](=O)[O-])c2)N1 [(E)-2((E)-(3-nitrobenzylidene)hydrazono)thiazolidin-4-one (8)],5.07
3,O=C1CS/C(=N/N=C\c2ccc(O)cc2)N1 [(E)-2((E)-(4-Hydroxybenzylidin)hydrazono)thiazolidine-4-one (6)],4.84
4,O=C1CSC(N/N=C/c2ccc([N+](=O)[O-])cc2)=N1 [(E)-2((E)-(4-Nitrobenzylidene)hydrazono)thiazolidine-4-one (2)],4.57
5,"COc1cccc(/C=N/N=C2\NC(=O)CS2)c1OC [(E)-2-((E)-(2,3-Dimethoxybenzylidene)hydrazono)thiazolidin-4-one (4)]",4.28
6,O=C1CS/C(=N/N=C/c2ccccc2[N+](=O)[O-])N1 [(E)-2-((E)-(2-Nitrobenzylidene)hydrazono)thiazolidin-4-one (1)],4.32
7,"O=C1CS/C(=N/N=C/c2cc(Cl)cc(Cl)c2O)N1 [(E)-2-((E)-(3,5-Dichloro-2-hydroxybenzylidene)hydrazono)thiazolidin-4-one (5)]",4.57
8,O=C1CS/C(=N/N=C\c2ccc(O)c(Cl)c2)N1 [(E)-2-((E)-(3-Chloro-4-hydroxybenzylideno)thiazolidin-4-one (3)],5.03
9,"COc1cc(/C=N/N=C2\NC(=O)CS2)cc(OC)c1O [(E)-2-((E)-(4-Hyrazoxy-3,5-dimethoxybenzylidene)hydrazono)thiazolidin-4-one (9)]",4.42
10,O=C1CS/C(=N/N=C\C2C=Nc3ccccc32)N1 (centres undefined) [(E)-2-(E)-((1H-Indole-3-yl)methylene)hydrazono)thiazolidine-4-one (16)],4.29
11,C/C(=N/N=C1\NC(=O)CS1)c1ccc([N+](=O)[O-])cc1Br [(Z)-2-((Z)-(1-(2-Bromo-4-nitrophenyl)ethylidene)hydrazono)thiazolidine-4-one (15)],5.64
12,"COc1ccc(/C=N\N=C2/NC(=O)CS2)c(OC)c1 [(Z)-2-((Z)-(2,4-Dimethoxybenzoylidine)hydrazono)thiazolidine-4-one (18)]",4.16
13,CCOc1ccc(/C=N\N=C2/NC(=O)CS2)cc1OC [(Z)-2-((Z)-(4-Ethoxy-3-methoxybenzoylidine)hydrazono)thiazolidine-4-one (17)],5.24
14,NC(N)=S [thiocarbamide],4.67
